≈ marks a conversion by molar mass, not a printed value.
Target: T1, MjGCTL (rMjGCTL) (Penaeus japonicus, UniProt A0A1L7MZX5)
T1 construct: gene GCTL; secreted from Drosophila S2 cells (pMT/BiP/V5-His C), V5 and His tags kept, Ni-NTA purified; ~50 kDa, glycosylated; ORF 311 aa, 35 kDa predicted; LDLa domain plus CRD (QAP motif)
T1 sequence (A0A1L7MZX5 17-311): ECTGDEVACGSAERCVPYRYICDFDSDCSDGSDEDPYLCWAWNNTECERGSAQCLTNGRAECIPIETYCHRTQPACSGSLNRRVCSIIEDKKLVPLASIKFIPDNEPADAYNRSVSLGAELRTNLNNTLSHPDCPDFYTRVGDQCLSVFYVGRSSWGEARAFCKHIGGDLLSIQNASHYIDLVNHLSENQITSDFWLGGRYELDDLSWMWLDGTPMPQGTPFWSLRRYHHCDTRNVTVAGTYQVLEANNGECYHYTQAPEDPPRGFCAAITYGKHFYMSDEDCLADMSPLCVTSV
Assay: inhibition of bacterial agglutination by purified rMjGCTL
Assay type: biochemical
Settings: V. parahaemolyticus named for Man/Gal/Glc; TBS with 10 mM CaCl2, pH 7, 25 °C; 1 h preincubation; Ca2+-dependent
From the text: inhibition of bacterial agglutination by purified rMjGCTL on MjGCTL (rMjGCTL)

SMILES: OC[C@H]1OC(O)[C@H](O)[C@@H](O)[C@@H]1O (stereo partly drawn) [D-glucose]
- Minimum inhibitory concentration: 100 mM (≈ 18 mg/mL)

SMILES: C[C@@H]1OC(O)[C@@H](O)[C@H](O)[C@@H]1O (stereo partly drawn) [Fucose]
- Minimum inhibitory concentration: 250 mM (≈ 41 mg/mL)

SMILES: OC[C@H]1O[C@@H](O[C@H]2[C@H](O)[C@@H](O)C(O)O[C@@H]2CO)[C@H](O)[C@@H](O)[C@H]1O (stereo partly drawn) [Lactose]
- Minimum inhibitory concentration: 250 mM (≈ 85.6 mg/mL)

SMILES: OC[C@H]1O[C@H](O[C@H]2[C@H](O)[C@@H](O)C(O)O[C@@H]2CO)[C@H](O)[C@@H](O)[C@@H]1O (stereo partly drawn) [Maltose]
- Minimum inhibitory concentration: 125 mM (≈ 42.8 mg/mL)

SMILES: CC(=O)N[C@H]1C(O)O[C@H](CO)[C@@H](O)[C@@H]1O (stereo partly drawn) [N-Acetyl-D-glucosamine]
- Minimum inhibitory concentration: 250 mM (≈ 55.3 mg/mL)

SMILES: OC1OC[C@@H](O)[C@H](O)[C@H]1O (stereo partly drawn) [Xylose]
- Minimum inhibitory concentration: 62.5 mM (≈ 9.38 mg/mL)

— paper PMC5379193, “Pathogen recognition of a novel C-type lectin from Marsupenaeus japonicus reveals the divergent sugar-binding specificity of QAP motif” (Scientific Reports, 2017)
